Where a name gives a salt, the structure may show the parent alone.
How the values were obtained:
Assay type in all cases: physicochemical
[1] = Salt screening assays of the acid (IIa): stability of the salts
Source text: The following describes the salt screening assays in more detail:
Many inorganic cations were investigated to determine their ability to form a stable crystalline salt of the acid (IIa), including potassium, sodium, calcium, aluminium, magnesium, lithium, and zinc.
Several organic amines were investigated, including N-methylglucamine, diethanolamine, ethylenediamine, choline, lysine, and arginine.
In addition to the foregoing, it was investigated to form a mixed salt of the acid of Formula (IIa) with polyvalent inorganic cations and organic acids.
In general, the salt screening assay included the variability of the following different test parameters:
i) Type of cation-compound utilized (e.g., as carbonates, hydroxides, methylates, ethylates).
ii) Type of solvent utilized.
iii) Specific addition or exclusion of water (to assist the formation of hydrates or anhydrates).
iv) Type of crystallization utilized (cooling crystallization, antisolvent crystallization, or evaporation crystallization, and combinations thereof).
v) Type of screening (manual screening as well as high throughput screening).

[2] = Chemical stability of solid state forms under stress at 40° C./75% rH over 4 weeks (HPLC purity); settings: for HPLC-purity: 40° C./75% RH; for chemical stability under stress (in words): 40° C./75% rH
Experimental: The chemical stability of the anhydrate and the monohydrate of the potassium salt of Formula (Ia) of the invention as well as the dehydrated form I of the potassium salt (Ia) of the invention were assessed by comparing the stability under stress at 40° C./75% rH over a period of 4 weeks.

[3] = Dynamic vapor sorption / hygroscopicity studies (automated water sorption analyzer); settings: 25° C.; for relative humidity up to which the form is stable: sorption cycle
Experimental: The transformation of the monohydrate to the dihydrate form and vice versa occurs quickly and is well defined at 25° C. and at 40° C. This was shown by dynamic vapor sorption investigations. For example, during pre-drying of the monohydrate at 25° C. and 0% relative humidity, 4.0% water is released from the monohydrate. […] Between 20% and 40% relative humidity, one mole of water is absorbed, resulting in the formation of the monohydrate. The monohydrate is stable up to approximately 50% relative humidity and then is transformed into the dihydrate by absorption of a second mole of water between 50% and 60% relative humidity. The dihydrate is the stable form up to 98% relative humidity at 25° C. During the desorption cycle between 40% and 50% relative humidity, the transformation into the monohydrate takes place. The formed monohydrate is existent up to 10% relative humidity. Between 0% and 10% relative humidity the dehydration of the monohydrate to the dehydrated form II occurs. No significant differences between the two cycles were observed.
The hygroscopicity with respect to the transformation of the monohydrate and dihydrate was re-investigated between 45% and 55% relative humidity using smaller steps for the relative humidity. […] At 40° C. the reversible transformation between the monohydrate and the dihydrate is between 57% and 59% relative humidity, approximately 10% higher than at 25° C.
Also, the transformation of the anhydrate form of the potassium salt (Ia) to the hydrate form was shown by dynamic vapor sorption investigations at 25° C. Up to 40% relative humidity the anhydrate was stable. Between 40% and 60% relative humidity approximately two moles of water are absorbed, resulting in the formation of the dihydrate.
Data collection for the hygroscopicity studies was carried out in an automated water sorption analyzer. Approximately 20 mg of the investigated solid state form of the crystalline potassium salt (Ia) was exposed to a continuous flow of nitrogen with predetermined and constant relative humidity. The rate of sweep gas was set at 200 cm^3/min. For a basic assay, two full cycles (sorption/desorption) were measured at 25° C. The measurement was started at 0% relative humidity in order to remove surface water. Once the constant mass was achieved, the next humidity was automatically set. The water sorption/desorption was investigated in steps of 10% between 0% and 90% relative humidity under the criteria for initiation of the first step as set forth herein. Additionally, the sorption at about 98% relative humidity was investigated. Data was acquired using the DVSWin software. […]

Question: Which “stability compared with other salts and the free acid (in words)” value [1] does the source give for O=C(O)COC[C@H](O)[C@H](O)/C=C/C=C/C#C/C=C/[C@H](O)COc1ccc(F)cc1 [(Ia), potassium 2-((2S,3R,4E,6E,10E,12S)-13-(4-fluorophenoxy)-2,3,12-trihydroxytrideca-4,6,10-trien-6-ynyloxy)acetate] here?
Answer: substantially more stable than every other salt prepared

Question: For O=C(O)COC[C@H](O)[C@H](O)/C=C/C=C/C#C/C=C/[C@H](O)COc1ccc(F)cc1 [K-salt, Anhydrate, potassium 2-((2S,3R,4E,6E,10E,12S)-13-(4-fluorophenoxy)-2,3,12-trihydroxytrideca-4,6,10-trien-6-ynyloxy)acetate], which HPLC-purity ([2]; 0 weeks (start)) is on record?
Answer: 99.6%

Question: What about the HPLC-purity ([2]; 2 weeks) of the same compound?
Answer: 99.7%

Question: What about the HPLC-purity ([2]; 4 weeks) of the same compound?
Answer: 99.7%

Question: What about the “chemical stability under stress (in words)” value ([2]; 4 weeks) of the same compound?
Answer: no sign of degradation

Question: What about the “relative humidity up to which the form is stable” value (from here on “relative humidity up”) [3] of the same compound?
Answer: Up to 40 % relative humidity

Question: Which HPLC-purity ([2]; 0 weeks (start)) does the source give for O=C(O)COC[C@H](O)[C@H](O)/C=C/C=C/C#C/C=C/[C@H](O)COc1ccc(F)cc1 [K-salt, Monohydrate, potassium 2-((2S,3R,4E,6E,10E,12S)-13-(4-fluorophenoxy)-2,3,12-trihydroxytrideca-4,6,10-trien-6-ynyloxy)acetate] here?
Answer: 99.7%

Question: What about the HPLC-purity ([2]; 2 weeks) of the same compound?
Answer: 99.6%

Question: What about the HPLC-purity ([2]; 4 weeks) of the same compound?
Answer: 99.7%

Question: What about the “chemical stability under stress (in words)” value ([2]; 4 weeks) of the same compound?
Answer: no sign of degradation

Question: What about the “water released during pre-drying” value ([3]; 0% relative humidity, gives dehydrated form II) of the same compound?
Answer: 4.0%

Question: What about the “relative humidity up” value [3] of the same compound?
Answer: approximately 50 % relative humidity

Question: Which HPLC-purity ([2]; 0 weeks (start)) does the source give for O=C(O)COC[C@H](O)[C@H](O)/C=C/C=C/C#C/C=C/[C@H](O)COc1ccc(F)cc1 [K-salt, dehydrated form I, potassium 2-((2S,3R,4E,6E,10E,12S)-13-(4-fluorophenoxy)-2,3,12-trihydroxytrideca-4,6,10-trien-6-ynyloxy)acetate] here?
Answer: 97.8%

Question: And the HPLC-purity ([2]; 2 weeks)?
Answer: 97.1%

Question: What about the HPLC-purity ([2]; 4 weeks) of the same compound?
Answer: 95.3%

Question: With O=C(O)COC[C@H](O)[C@H](O)/C=C/C=C/C#C/C=C/[C@H](O)COc1ccc(F)cc1 [dihydrate, potassium 2-((2S,3R,4E,6E,10E,12S)-13-(4-fluorophenoxy)-2,3,12-trihydroxytrideca-4,6,10-trien-6-ynyloxy)acetate] as the compound, how does the “relative humidity up” value [3] read?
Answer: up to 98 % relative humidity

Reference: US8049035B2, “Crystalline potassium salt of lipoxin A4 analogs” (Bayer Pharma AG, priority 2006, dated 2011)
